This is an account of results in ChEMBL document CHEMBL1143236, “Design, synthesis, FGF-1 binding, and molecular modeling studies of conformationally flexible heparin mimetic disaccharides” (Bioorg Med Chem Lett, 2008).

A word on the Kd: it is the concentration at which binding is half-saturated. Higher therefore signals weaker binding.

The test has as its target Fibroblast growth factor 1 (Homo sapiens, UniProt P05230). Description: Binding affinity at FGF1.

Chain of Fibroblast growth factor 1 (P05230 whole entry): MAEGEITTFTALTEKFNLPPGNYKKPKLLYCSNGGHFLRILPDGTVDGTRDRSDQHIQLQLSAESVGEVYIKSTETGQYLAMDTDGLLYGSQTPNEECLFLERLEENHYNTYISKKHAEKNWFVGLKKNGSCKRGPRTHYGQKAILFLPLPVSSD

With `CO[C@@H]1OC[C@@H](O[C@H]2O[C@H](CO)[C@H](O)[C@H](O)[C@H]2OS(=O)(=O)O)[C@H](OS(=O)(=O)O)[C@H]1OS(=O)(=O)O`, the dissociation constant (Kd) amounted to 1400 µM.
`CO[C@@H]1O[C@H](COS(=O)(=O)O)[C@@H](O[C@H]2O[C@H](COS(=O)(=O)O)[C@H](OC)[C@H](OC)[C@H]2OS(=O)(=O)O)[C@H](OS(=O)(=O)O)[C@H]1OS(=O)(=O)O` yielded a Kd of 47.9 µM.
In the case of `CO[C@@H]1O[C@H](COS(=O)(=O)O)[C@@H](O[C@H]2O[C@H](CO)[C@H](O)[C@H](O)[C@H]2OS(=O)(=O)O)[C@H](OS(=O)(=O)O)[C@H]1OS(=O)(=O)O`, the Kd is 77.5 µM.
Consider `CO[C@@H]1O[C@H](COS(=O)(=O)O)[C@@H](O[C@H]2O[C@H](COS(=O)(=O)O)[C@H](O)[C@H](O)[C@H]2OS(=O)(=O)O)[C@H](OS(=O)(=O)O)[C@H]1OS(=O)(=O)O`, for which the Kd is 21.8 µM.
In turn, `COC[C@H]1O[C@H](O[C@H]2[C@H](OS(=O)(=O)O)[C@@H](OS(=O)(=O)O)[C@H](OC)O[C@@H]2COS(=O)(=O)O)[C@H](OS(=O)(=O)O)[C@@H](OC)[C@H]1OC` gave a Kd of 233 µM.
